Legend:
late watergrass [1] = assay: Test Example 2: herbicidal activity, application during weed generation under submerged conditions (Table 17, symbol A); assay type: in vivo, late watergrass (Echinochloa oryzicola); details: AAH 320 g/ha; application during weed generation, submerged conditions
Procedure, shortened: (§1)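 Effect on each weed is rated three weeks post-treatment, using the same scoring criteria as the preceding test. Plants grow from mixed-sown seed in flooded alluvial soil (4 cm water) at 25° C. to 30° C., and are treated at one to two leaves with diluted emulsion dropped onto the water.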

Chinese sprangletop = assay: Test Example 3: herbicidal effect by foliage application, Wagner pot (Table 18, symbol D); assay type: in vivo, chinese sprangletop (Leptochloa chinensis); details: for herbicidal effect on D: Chinese sprangletop: amount of applied herbicide 320 g/ha; for herbicidal effect on D (Chinese sprangletop), rating 0-5: 320 g/ha
Procedure, shortened: (§2)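 Plants were sown in alluvial soil held under 0.1–0.5 cm standing water and grown 14 days in a greenhouse at 25–30 °C. An emulsifiable formulation, water-diluted to the set dose, was then sprayed onto the foliage, and effects were scored three weeks later using previously defined criteria.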

windgrass [2] = assay: Test Example 5: herbicidal effect by foliage application, plastic box (Table 20, symbol L); assay type: in vivo, windgrass (Apera spica-venti); details: foliage application
Procedure, shortened: (§3)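 Plants were sown into sterilized diluvial soil under about 1.5 cm cover and kept in a greenhouse at 25° C. to 30° C. Fourteen days on, foliage received an even spray of the diluted emulsion. Herbicidal or crop effect was judged three weeks afterwards.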

Italian ryegrass [3] = assay: Test Example 5: herbicidal effect by foliage application, plastic box (Table 20, symbol K); assay type: in vivo, Italian ryegrass (Lolium multiflorum); details: foliage application
Procedure, shortened: as §3

Japanese bulrush = assay: Test Example 2: herbicidal activity, application during weed generation under submerged conditions (Table 17, symbol B); assay type: in vivo, Japanese bulrush (Schoenoplectus juncoides); details: AAH 320 g/ha; application during weed generation, submerged conditions
Procedure, shortened: as §1

lambsquarters [4] = assay: Test Example 5: herbicidal effect by foliage application, plastic box (Table 20, symbol O); assay type: in vivo, lambsquarters (Chenopodium album); details: foliage application
Procedure, shortened: as §3

lambsquarters [5] = assay: Test Example 4: herbicidal effect by soil treatment (Table 19, symbol O); assay type: in vivo, lambsquarters (Chenopodium album)
Procedure, shortened: (§4)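 In this soil treatment, the formulated compound reached the seeds only through the soil: seeds were buried about 1.5 cm deep in sterilized diluvial soil, then the diluted emulsion was sprayed over the surface. After three weeks at 25° C. to 30° C. in a greenhouse, effects were graded on criteria from an earlier test.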

windgrass [6] = assay: Test Example 4: herbicidal effect by soil treatment (Table 19, symbol L); assay type: in vivo, windgrass (Apera spica-venti)
Procedure, shortened: as §4

persian speedwell [7] = assay: Test Example 5: herbicidal effect by foliage application, plastic box (Table 20, symbol R); assay type: in vivo, Persian speedwell (Veronica persica); details: foliage application
Procedure, shortened: as §3

blackgrass = assay: Test Example 4: herbicidal effect by soil treatment (Table 19, symbol J); assay type: in vivo, blackgrass (Alopecurus myosuroides)
Procedure, shortened: as §4

velvetleaf = assay: Test Example 4: herbicidal effect by soil treatment (Table 19, symbol M); assay type: in vivo, velvetleaf (Abutilon theophrasti)
Procedure, shortened: as §4

barnyard grass = assay: Test Example 3: herbicidal effect by foliage application, Wagner pot (Table 18, symbol H); assay type: in vivo, barnyard grass (Echinochloa crus-galli); details: for herbicidal effect on H: barnyard grass: amount of applied herbicide 320 g/ha; for herbicidal effect on H (barnyard grass), rating 0-5: 320 g/ha
Procedure, shortened: as §2

southern crabgrass [8] = assay: Test Example 5: herbicidal effect by foliage application, plastic box (Table 20, symbol F); assay type: in vivo, southern crabgrass (Digitaria ciliaris); details: foliage application
Procedure, shortened: as §3

persian speedwell [9] = assay: Test Example 4: herbicidal effect by soil treatment (Table 19, symbol R); assay type: in vivo, Persian speedwell (Veronica persica)
Procedure, shortened: as §4

southern crabgrass [10] = assay: Test Example 4: herbicidal effect by soil treatment (Table 19, symbol F); assay type: in vivo, southern crabgrass (Digitaria ciliaris)
Procedure, shortened: as §4

late watergrass [11] = assay: Test Example 1: herbicidal activity, application before weed generation under submerged conditions (Table 16, symbol A); assay type: in vivo, late watergrass (Echinochloa oryzicola); details: 320 g/ha applied herbicide
Procedure, shortened: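 Alluvial soil was flooded to 4 cm depth, weed seeds were sown mixed and 2.5-leaf rice seedlings were transplanted. On sowing day, the compound's emulsion, diluted in water to a set dose, was applied to the water surface. Plants grew at 25–30 °C and were scored 0–5 after three weeks.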

Italian ryegrass [12] = assay: Test Example 4: herbicidal effect by soil treatment (Table 19, symbol K); assay type: in vivo, Italian ryegrass (Lolium multiflorum)
Procedure, shortened: as §4

[13] = 320 g/ha, evaluated three weeks after application
[14] = amount of applied herbicide 320 g/ha
[15] = AAH 320 g/ha, evaluated three weeks after application
[16] = 320 g/ha, 3 weeks after application

Structure (SMILES) | herbicidal effect rating, A: late watergrass (late watergrass [1]) | herbicidal effect on D: Chinese sprangletop (Chinese sprangletop) | herbicidal effect on L: windgrass (criteria 0-5) (windgrass [2]; [13]) | herbicidal effect on K: Italian ryegrass (criteria 0-5) (Italian ryegrass [3]; [13]) | herbicidal effect rating, B: Japanese bulrush (Japanese bulrush) | herbicidal effect on O: lambsquarters (criteria 0-5) (lambsquarters [4]; [13]) | herbicidal effect on O: lambsquarters (lambsquarters [5]; [14]) | herbicidal effect on L: windgrass (windgrass [6]; [14]) | herbicidal effect on R: persian speedwell (criteria 0-5) (persian speedwell [7]; [13]) | herbicidal effect on J: blackgrass (blackgrass; [14]) | herbicidal effect on M: velvetleaf (velvetleaf; [14]) | herbicidal effect on H: barnyard grass (barnyard grass) | herbicidal effect on F: southern crabgrass (criteria 0-5) (southern crabgrass [8]; [13]) | herbicidal effect on R: persian speedwell (persian speedwell [9]; [14]) | herbicidal effect on F: southern crabgrass (southern crabgrass [10]; [14]) | Herbicidal effect on A: late watergrass (grade 0-5) (late watergrass [11]) | herbicidal effect on K: Italian ryegrass (Italian ryegrass [12]; [14]) | herbicidal effect on D (Chinese sprangletop), rating 0-5 (Chinese sprangletop) | herbicidal effect on H (barnyard grass), rating 0-5 (barnyard grass) | also measured
CCCC(=O)Oc1c(C)nn(C)c(=O)c1-c1c(-c2cccc(OCC(C)C)c2)sc2ccc(F)cc12 [2-222] | 2 (Herbicidal rate of 20% or more and less than 40%) | 5 (Herbicidal rate of 90% or more (almost completely withered)) | 4 (Herbicidal rate of 70% or more and less than 90%) | 4 (Herbicidal rate of 70% or more and less than 90%) | 3 (Herbicidal rate of 40% or more and less than 70%) | 5 (Herbicidal rate of 90% or more (almost completely withered)) | 4 (Herbicidal rate of 70% or more and less than 90%) | 4 (Herbicidal rate of 70% or more and less than 90%) | 5 (Herbicidal rate of 90% or more (almost completely withered)) | 4 (Herbicidal rate of 70% or more and less than 90%) | 3 (Herbicidal rate of 40% or more and less than 70%) | 5 (Herbicidal rate of 90% or more (almost completely withered)) | 5 (Herbicidal rate of 90% or more (almost completely withered)) | 5 (Herbicidal rate of 90% or more (almost completely withered)) | 1 (Herbicidal rate of 5% or more and less than 20%) | 5 (Herbicidal rate of 90% or more (almost completely withered)) | 2 (Herbicidal rate of 20% or more and less than 40%) |  |  | 
COc1ccc(-c2sc3ccc(F)cc3c2-c2c(O)c(C)nn(C)c2=O)cc1OC [2-088] | 3 (Herbicidal rate of 40% or more and less than 70%) |  |  |  | 0 (Herbicidal rate of 5% or less (almost no effect)) |  |  |  |  |  |  |  |  |  |  | 3 (Herbicidal rate of 40% or more and less than 70%) |  | 3 (Herbicidal rate of 40% or more and less than 70%) | 5 (Herbicidal rate of 90% or more (almost completely withered)) | herbicidal effect on L: windgrass (windgrass [2]; [13]): 0 (Herbicidal rate of 5% or less (almost no effect)); herbicidal effect on K: Italian ryegrass (Italian ryegrass [3]; [13]): 4 (Herbicidal rate of 70% or more and less than 90%); herbicidal effect on O: lambsquarters (lambsquarters [4]; [13]): 4 (Herbicidal rate of 70% or more and less than 90%); herbicidal effect rating, O: lambsquarters (lambsquarters [5]; 320 g/ha): 4 (Herbicidal rate of 70% or more and less than 90%); herbicidal effect rating, L: windgrass (windgrass [6]; 320 g/ha): 0 (Herbicidal rate of 5% or less (almost no effect)); herbicidal effect on R: persian speedwell (persian speedwell [7]; [13]): 5 (Herbicidal rate of 90% or more (almost completely withered)); herbicidal effect rating, J: blackgrass (blackgrass; 320 g/ha): 0 (Herbicidal rate of 5% or less (almost no effect)); herbicidal effect rating, M: velvetleaf (velvetleaf; 320 g/ha): 2 (Herbicidal rate of 20% or more and less than 40%); herbicidal effect on F: southern crabgrass (southern crabgrass [8]; [13]): 3 (Herbicidal rate of 40% or more and less than 70%); herbicidal effect rating, R: persian speedwell (persian speedwell [9]; 320 g/ha): 3 (Herbicidal rate of 40% or more and less than 70%); herbicidal effect rating, F: southern crabgrass (southern crabgrass [10]; 320 g/ha): 1 (Herbicidal rate of 5% or more and less than 20%); herbicidal effect rating, K: Italian ryegrass (Italian ryegrass [12]; 320 g/ha): 3 (Herbicidal rate of 40% or more and less than 70%)
C#CCSCc1ccc(-c2sc3ccc(F)cc3c2-c2c(O)c(C)nn(C)c2=O)cc1 [2-325] | 2 (Herbicidal rate of 20% or more and less than 40%) | 3 (Herbicidal rate of 40% or more and less than 70%) |  |  | 2 (Herbicidal rate of 20% or more and less than 40%) |  | 4 (Herbicidal rate of 70% or more and less than 90%) | 0 (Herbicidal rate of 5% or less (almost no effect)) |  | 0 (Herbicidal rate of 5% or less (almost no effect)) | 0 (Herbicidal rate of 5% or less (almost no effect)) | 5 (Herbicidal rate of 90% or more (almost completely withered)) |  | 5 (Herbicidal rate of 90% or more (almost completely withered)) | 0 (Herbicidal rate of 5% or less (almost no effect)) | 3 (Herbicidal rate of 40% or more and less than 70%) | 4 (Herbicidal rate of 70% or more and less than 90%) |  |  | L: windgrass, herbicidal effect (criteria 0-5) (windgrass [2]; [15]): 5 (Herbicidal rate of 90% or more (almost completely withered)); K: Italian ryegrass, herbicidal effect (criteria 0-5) (Italian ryegrass [3]; [15]): 4 (Herbicidal rate of 70% or more and less than 90%); O: lambsquarters, herbicidal effect (criteria 0-5) (lambsquarters [4]; [15]): 5 (Herbicidal rate of 90% or more (almost completely withered)); R: persian speedwell, herbicidal effect (criteria 0-5) (persian speedwell [7]; [15]): 5 (Herbicidal rate of 90% or more (almost completely withered)); F: southern crabgrass, herbicidal effect (criteria 0-5) (southern crabgrass [8]; [15]): 5 (Herbicidal rate of 90% or more (almost completely withered))
Cc1nn(C)c(=O)c(-c2c(-c3ccc(OCC(F)F)cc3)sc3ccccc23)c1O [1-203] | 4 (Herbicidal rate of 70% or more and less than 90%) |  |  |  | 3 (Herbicidal rate of 40% or more and less than 70%) |  |  |  |  |  |  |  |  |  |  | 5 (Herbicidal rate of 90% or more (almost completely withered)) |  | 4 (Herbicidal rate of 70% or more and less than 90%) | 5 (Herbicidal rate of 90% or more (almost completely withered)) | effect on windgrass (L) (windgrass [2]; [16]): 4 (Herbicidal rate of 70% or more and less than 90%); effect on Italian ryegrass (K) (Italian ryegrass [3]; [16]): 5 (Herbicidal rate of 90% or more (almost completely withered)); effect on lambsquarters (O) (lambsquarters [4]; [16]): 5 (Herbicidal rate of 90% or more (almost completely withered)); O: lambsquarters, herbicidal effect rating (lambsquarters [5]; AAH 320 g/ha): 5 (Herbicidal rate of 90% or more (almost completely withered)); L: windgrass, herbicidal effect rating (windgrass [6]; AAH 320 g/ha): 0 (Herbicidal rate of 5% or less (almost no effect)); effect on persian speedwell (R) (persian speedwell [7]; [16]): 5 (Herbicidal rate of 90% or more (almost completely withered)); J: blackgrass, herbicidal effect rating (blackgrass; AAH 320 g/ha): 3 (Herbicidal rate of 40% or more and less than 70%); M: velvetleaf, herbicidal effect rating (velvetleaf; AAH 320 g/ha): 5 (Herbicidal rate of 90% or more (almost completely withered)); effect on southern crabgrass (F) (southern crabgrass [8]; [16]): 3 (Herbicidal rate of 40% or more and less than 70%); R: persian speedwell, herbicidal effect rating (persian speedwell [9]; AAH 320 g/ha): 5 (Herbicidal rate of 90% or more (almost completely withered)); F: southern crabgrass, herbicidal effect rating (southern crabgrass [10]; AAH 320 g/ha): 4 (Herbicidal rate of 70% or more and less than 90%); K: Italian ryegrass, herbicidal effect rating (Italian ryegrass [12]; AAH 320 g/ha): 5 (Herbicidal rate of 90% or more (almost completely withered))
CCCC(=O)Oc1c(C)nn(C)c(=O)c1-c1c(-c2cccc(F)c2)sc2ccc(F)cc12 [2-202] | 4 (Herbicidal rate of 70% or more and less than 90%) | 5 (Herbicidal rate of 90% or more (almost completely withered)) | 2 (Herbicidal rate of 20% or more and less than 40%) | 3 (Herbicidal rate of 40% or more and less than 70%) | 3 (Herbicidal rate of 40% or more and less than 70%) | 4 (Herbicidal rate of 70% or more and less than 90%) |  |  | 4 (Herbicidal rate of 70% or more and less than 90%) |  |  | 5 (Herbicidal rate of 90% or more (almost completely withered)) | 3 (Herbicidal rate of 40% or more and less than 70%) |  |  | 3 (Herbicidal rate of 40% or more and less than 70%) |  |  |  | O: lambsquarters, herbicidal effect rating (lambsquarters [5]; [14]): 5 (Herbicidal rate of 90% or more (almost completely withered)); L: windgrass, herbicidal effect rating (windgrass [6]; [14]): 0 (Herbicidal rate of 5% or less (almost no effect)); J: blackgrass, herbicidal effect rating (blackgrass; [14]): 0 (Herbicidal rate of 5% or less (almost no effect)); M: velvetleaf, herbicidal effect rating (velvetleaf; [14]): 0 (Herbicidal rate of 5% or less (almost no effect)); R: persian speedwell, herbicidal effect rating (persian speedwell [9]; [14]): 4 (Herbicidal rate of 70% or more and less than 90%); F: southern crabgrass, herbicidal effect rating (southern crabgrass [10]; [14]): 2 (Herbicidal rate of 20% or more and less than 40%); K: Italian ryegrass, herbicidal effect rating (Italian ryegrass [12]; [14]): 1 (Herbicidal rate of 5% or more and less than 20%)
